From ChEMBL document CHEMBL3272215, “Gliotoxin analogues as inhibitors of reverse transcriptase. 2. Resolution and X-ray crystal structure determination” (J Med Chem, 1978)
Calls of active or inactive are those of the source. The rule behind the calls is not given here.

System: Moloney murine leukemia virus
Test: Inhibition of Moloney murine leukemia virus reverse transcriptase assessed as [3H]-dTMP incorporation after 30 to 120 mins

Row | inhibition | logI50 | SMILES
1 | Active |  | CN1C(=O)[C@@]23SS[C@]1(C)C(=O)N2c1ccccc1C3(C)C
2 |  | 0.796 | CN1C(=O)[C@]23SSC[C@@H]4OC(C)(C)O[C@H]4CSS[C@@]1(C)C(=O)N2c1ccccc1C3(C)C
3 | Active |  | CN1C(=O)[C@]23SS[C@@]1(C)C(=O)N2c1ccccc1C3(C)C
4 |  | 0.796 | CN1C(=O)[C@@]23SSC[C@@H]4OC(C)(C)O[C@H]4CSS[C@]1(C)C(=O)N2c1ccccc1C3(C)C
